This passage reports IC50 results from PMC3368601 (Chemistry & biology, 2011).

This experiment has as its target AAK1 (adaptor-associated kinase 1) (Homo sapiens, UniProt Q2M2I8). The experiment can be described thus: ADP-Glo kinase assay with recombinant AAK1 and AP2M1 peptide. The experiment is classed as biochemical.

pIC50: −log10 of the molar value.

AAK1 (adaptor-associated kinase 1), sequence (Q2M2I8 46-315 limits assumed): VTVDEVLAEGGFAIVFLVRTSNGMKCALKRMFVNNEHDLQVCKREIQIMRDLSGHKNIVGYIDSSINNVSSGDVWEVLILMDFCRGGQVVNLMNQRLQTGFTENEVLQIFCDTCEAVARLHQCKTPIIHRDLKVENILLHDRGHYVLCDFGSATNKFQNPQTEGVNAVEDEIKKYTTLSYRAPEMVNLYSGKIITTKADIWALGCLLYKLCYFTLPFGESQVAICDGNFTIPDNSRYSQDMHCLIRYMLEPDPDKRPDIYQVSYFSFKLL

Turning to `COC(=O)C1(O)C[C@H]2O[C@]1(C)n1c3ccccc3c3c4c(c5c6ccccc6n2c5c31)C(=O)NC4` (stereo partly shown) [compound 1, K252a], the negative-log IC50 (pIC50) was more than 8.00.
